Measurements from patent publication US20240109934A1, “ANTIBIOTICS WITH IMPROVED DRUG RESISTANCE PROFILE” (priority 2021, published 2024).
Values after ≈ are worked out from the molar mass of the structure shown. Where two headings read alike, the source gives them in different places.

How the values were obtained:
[1] = Pharmacokinetic assessment in mice; assay type: in vivo, C57BL/6 mice; details: mice, 50 mg/kg intraperitoneal, serum, one-compartment model
Description: FIG. 3. A). Pharmacokinetic analysis of fusidic acid and FA-CP. […] The data are illustrated as the mean and represent the average of three independent experiments. The pharmacokinetic parameters illustrated above were calculated with a one-compartment model using a non-linear regression program (Phoenix WinNonlin Version 8.1, Certara USA Inc. Princeton NJ 08540 USA). B). S. aureus ATCC 29213 neutropenic thigh infection burden study. CD-1 mice were first rendered neutropenic with cyclophosphamide. Mice were injected on (Day-4 to Day-2) with 150 mg/kg and on (Day-1) with 100 mg/kg of cyclophosphamide, respectively. […] C). S. aureus (FA-32×-B) neutropenic thigh infection study. CD-1 mice were first rendered neutropenic with cyclophosphamide as described above. […] Drugs were formulated with 5% DMSO, 10% Tween 20, 85% PBS immediately before injection. The data shown as means±s.d. and statistical significance was determined by one-way ANOVA with Tukey's multiple comparisons. NS indicates not significant (P>0.05), **P<0.01, ****P<0.0001.
Pharmacokinetic Assessment of sodium fusidate and FA-CP (25). […] The compounds were formulated in 5% DMSO, 10% Tween 20, and 85% PBS. Mice were treated with sodium fusidate or FA-CP (25) (50 mg/kg) via intraperitoneal injection with three mice per time point (15, 30, 45, 60, 120, and 240 min). At specific time points, mice were sacrificed, blood was collected and centrifuged, and the serum was frozen at −80° C. until analysis. The proteins in a 10 μL aliquot of serum were precipitated by the addition of 50 μL acetonitrile with the addition of 10 μL of 1.6 ug/mL internal standard (sodium fusidate was the internal standard when measuring FA-CP (25) and FA-CP (25) was the internal standard when measuring sodium fusidate). The sample was then vortexed and centrifuged to remove the proteins. Supernatants were analyzed with the QTRAP 5500 LC/MS/MS system (Sciex) in the Metabolomics Laboratory of the Roy J. Carver Biotechnology center, University of Illinois at Urbana-Champaign. Software Analyst 1.6.2 was used for data acquisition and analysis. The 1200 Series HPLC System (Agilent Technologies) includes a degasser, an autosampler and a binary pump. The liquid chromatography separation was performed on an Agilent Zorbax SB-Aq column (4.6 mm×50 mm; 5 μm) with mobile phase A (0.1% formic acid in water) and mobile phase B (0.1% formic acid in acetonitrile). The flow rate was 0.3 mL/min. The linear gradient was as follows: 0-1 min: 95% A; 8-13 min: 0% A; 8.1-18.5 min: 95% A. The autosampler was set at 10° C. The injection volume was 5 μL. Mass spectra were acquired under negative electrospray ionization with a voltage of −4,500 V. The source temperature was 450° C. The curtain gas, ion source gas 1 and ion source gas 2 were 32, 60 and 60 psi, respectively. […] The limit of quantitation of (S/N=10) was 1 nM. Pharmacokinetic parameters were calculated with a one-compartment model using a nonlinear regression program (Phoenix WinNonlin Version 8.1; Certara USA).

[2] = cited from earlier work
[3] = system: S. aureus ATCC 29213; test: MIC by micro-dilution broth method (CLSI); assay type: cell-based; details: Staphylococcus aureus, ATCC29213; WT S. aureus ATCC 29213, n = 3; read-out: MIC Without Human Serum
[4] = system: multidrug-resistant clinical isolates of S. aureus; test: MIC against multidrug-resistant clinical isolates of S. aureus; assay type: cell-based; details: for MIC: Staphylococcus aureus, read-out: MIC
[5] = system: S. aureus (FA-32×-B); test: Neutropenic thigh infection burden study, FA-resistant strain; assay type: in vivo; details: neutropenic CD-1 mice, FA-resistant strain (P406L), 50 mg/kg IP at 1, 2, 3 h, burden at 8 h
[6] = system: S. aureus ATCC 29213; test: Neutropenic thigh infection burden study, sensitive strain; assay type: in vivo; details: neutropenic CD-1 mice, 50 mg/kg IP at 1, 2, 3 h post infection, burden at 24 h

With `CC(=O)O[C@H]1C[C@@]2(C)[C@@H](C[C@@H](O)[C@H]3[C@@]4(C)CC[C@@H](O)[C@@H](C)[C@@H]4CC[C@@]32C)/C1=C(\CCC=C(C)C)C(=O)O` [FA, Fusidic acid] the AUC ([1]; female, C57BL/6, mouse, in vivo, ip, read-out: AUC (converted)) was 9360 ng·h/mL, the Cmax ([1]; female, C57BL/6, mouse, in vivo, ip, read-out: Cmax) was 11100 ng/mL and the Tmax ([1]; female, C57BL/6, mouse, in vivo, ip, read-out: Tmax (converted)) was 5.4 min. For the same compound, the CL_F [1] was 89.0 mL/min/kg, the K10_HL [1] was 31.2 min and the Half-life in humans ([2]; in vivo) was 600 to 840 min. For the same compound, the “Cmax (drug plasma level)” value ([2]; patients, front-loading regimen 3 g first day, 1.2 g daily thereafter) was “greater than 130 μg/mL”, the MIC [3] was 0.125 µg/mL (≈ 0.242 µM) and the Cross-resistance with vancomycin ([4]; 29 clinical isolates of S. aureus) was “no cross-resistance with vancomycin”. The MIC ([4]; NRS3, S. aureus NRS3 (NARSA)) was 0.0625 µg/mL (≈ 0.121 µM), the MIC ([4]; NRS4, S. aureus NRS4 (NARSA)) was 0.0625 µg/mL (≈ 0.121 µM) and the MIC ([4]; NRS17, S. aureus NRS17 (NARSA)) was 0.0625 µg/mL (≈ 0.121 µM). The MIC ([4]; NRS18, S. aureus NRS18 (NARSA)) was 0.125 µg/mL (≈ 0.242 µM), the MIC ([4]; NRS21, S. aureus NRS21 (NARSA)) was 0.0625 µg/mL (≈ 0.121 µM) and the MIC ([4]; NRS22, S. aureus NRS22 (NARSA)) was 0.0625 µg/mL (≈ 0.121 µM). The MIC ([4]; NRS23, S. aureus NRS23 (NARSA)) was 0.125 µg/mL (≈ 0.242 µM), the MIC ([4]; NRS24, S. aureus NRS24 (NARSA)) was 0.0625 µg/mL (≈ 0.121 µM) and the MIC ([4]; NRS26, S. aureus NRS26 (NARSA)) was 0.0625 µg/mL (≈ 0.121 µM). It also gave an MIC ([4]; NRS27, S. aureus NRS27 (NARSA)) of 0.125 µg/mL (≈ 0.242 µM), an MIC ([4]; NRS29, S. aureus NRS29 (NARSA)) of 0.125 µg/mL (≈ 0.242 µM) and an MIC ([4]; NRS51, S. aureus NRS51 (NARSA)) of 0.0625 µg/mL (≈ 0.121 µM). The MIC ([4]; NRS68, S. aureus NRS68 (NARSA)) was 0.125 µg/mL (≈ 0.242 µM), the MIC ([4]; NRS73, S. aureus NRS73 (NARSA)) was 0.125 µg/mL (≈ 0.242 µM) and the MIC ([4]; NRS74, S. aureus NRS74 (NARSA)) was 0.125 µg/mL (≈ 0.242 µM). For the same compound, the MIC ([4]; NRS76, S. aureus NRS76 (NARSA)) was 0.125 µg/mL (≈ 0.242 µM), the MIC ([4]; NRS77, S. aureus NRS77 (NARSA), no noted resistance) was 0.0625 µg/mL (≈ 0.121 µM) and the MIC ([4]; NRS382, S. aureus NRS382 (NARSA)) was 0.0625 µg/mL (≈ 0.121 µM). For the same compound, the MIC ([4]; NRS383, S. aureus NRS383 (NARSA)) was 0.125 µg/mL (≈ 0.242 µM), the MIC ([4]; NRS384, S. aureus NRS384 (NARSA)) was 0.125 µg/mL (≈ 0.242 µM) and the MIC ([4]; S. aureus AR0561 (CDC)) was 0.125 µg/mL (≈ 0.242 µM). The MIC ([4]; S. aureus AR0562 (CDC)) was 0.125 µg/mL (≈ 0.242 µM), the MIC ([4]; S. aureus AR0563 (CDC)) was 0.125 µg/mL (≈ 0.242 µM) and the MIC ([4]; S. aureus AR0564 (CDC)) was 0.125 µg/mL (≈ 0.242 µM). For the same compound, the MIC ([4]; S. aureus AR0565 (CDC)) was 0.0625 µg/mL (≈ 0.121 µM), the MIC ([4]; S. aureus AR0566 (CDC)) was 0.125 µg/mL (≈ 0.242 µM) and the MIC ([4]; S. aureus AR0567 (CDC)) was 0.125 µg/mL (≈ 0.242 µM). For the same compound, the MIC ([4]; S. aureus AR0568 (CDC)) was 0.125 µg/mL (≈ 0.242 µM), the MIC ([4]; S. aureus AR0570 (CDC)) was 0.125 µg/mL (≈ 0.242 µM) and the “Bacterial burden in thigh” value [5] was “no efficacy”. The “Bacterial burden in thigh” value [6] was “Significant reductions in bacterial burden”.
